US20140228440A1, “1-AMINO-ALKYLCYCLOHEXANE DERIVATIVES FOR THE TREATMENT OF INFLAMMATORY SKIN DISEASES” (MERZ PHARMA GmbH & CO. KGaA, priority 2008, published 2014)
Values belong to the molecule of their own block, whether it stands above or below them.

What was measured:
[1] = system: Propionibacterium granulosum ATCC 11829; assay: MIC and MBC by the agar dilution method; type: cell-based; settings: pH 5.5
Procedure: (§1) To assess the anti-microbial potency of Neramexane against acne relevant bacterias the minimal inhibitory concentration (MIC) and minimal bactericidal concentration (MBC) against the following bacterias is established: The MICs of the samples are determined using the agar dilution method based on DIN 58940. Petri dishes of 5.5 cm diameter are poured with 2.5 ml of freshly prepared Mueller-Hinton agar (Merck company, Cat-No 1.05437) or Wilkins-Chalgren-Agar (Oxoid company, Cat-No CM643), maintained in liquid form at 50° C., to which the sample dilutions at various concentrations have been added at 50.0 vol.-%. To prepare the starting sample dilutions, a 12.5%, 3.12% suspension of the respective sample solution is prepared with Aqua purificata. From these stock-solutions, further dilutions are prepared with Aqua purificata. All test compounds are adjusted to pH 5.5. For test product no. 1, separate dilutions adjusted to pH 6.0 and pH 7.4 are also prepared. For inoculation, 1 μl of the respective germ suspension is placed on the centre of each agar plate. After drying, inoculated plates are incubated at 36.0±2.0° C. The basis for the length of incubation period is the respective growth control cultivated in parallel. The test microbe suspension is prepared by inoculating a few individual colonies of the respective bacteria into sterile saline solution until a turbidity corresponding to the McFarland standard 1.0 (approximately 10^8 cfu/ml) is reached. After that, the test microbe suspensions are further diluted 1:10 with saline solution and the microbial counts (see Table 21) are determined by the surface spread method using a spiral plater. The agar plates are incubated under the conditions given in Table 22 and subsequently evaluated. The MIC-values as given represent the lowest concentration of the active substance at which there is no macroscopically visible growth. Minimal, barely visible growth or few small individual colonies are evaluated as inhibition. [table] All negative tests of the determination of the minimal bactericial concentration are the basis of verification of remaining germs, the inoculated agar segments are cut and put in Mueller-Hinton-Bouillon (germ 1) or Wilkins-Chalgren-Bouillon (germs 2-4). After an adequate incubation period at 36.0±2.0° C. (as judged from a control without test compound), the tests are checked manually on microbial growth (=turbidity) and the minimal bactericidal concentration is determined. MBC indicates the concentration without marked turbidity. Grown germs are checked for identity to rule out unspecific contaminations. The following results are summarized and tabulated: • a) Results of the Minimal Inhibitory Concentration (MIC)* • b) Results of the Minimal Bactericidal Concentration (MBC) *The MIC is the concentration without macroscopical growth. Scarcely apparent, minimum growth or few single colonies are not considered. The controls must have a respectively good developed growth. There must be no growth on the agar plates for the sterile control. The growth of bacteria is indicated for the duplicate plates by a +(i.e., growth) or a −(i.e., no growth), +− indicates weak growth on both plates or growth on one plate and no growth on the other plate. All bacteria show appropriate growth on the respective control plate not containing any test compound. No influence of the used diluent (Aqua purifacata) was observed. No contamination is observed on the control-plates.

[2] = system: Propionibacterium acnes ATCC 11828; assay: MIC and MBC by the agar dilution method; type: cell-based; settings: pH 5.5
Procedure: as §1

[3] = system: Staphylococcus epidermidis ATCC 12228; assay: MIC and MBC by the agar dilution method; type: cell-based; settings: pH 5.5
Procedure: as §1

[4] = system: Propionibacterium avidum ATCC 25577; assay: MIC and MBC by the agar dilution method; type: cell-based; settings: pH 5.5
Procedure: as §1

[5] = system: ear swelling response induced by croton oil; assay: Irritant dermatitis mouse model (croton oil); type: in vivo, C57BL/6N male mice; settings: i.p. 5 mg/kg 1 hr before, 3.2 mg/kg 1 hr and 3 hr after irritation; 7 hours and 24 hours
Procedure: In order to further test for antiinflammatory properties, an irritant dermatitis mouse model is used. Induction of an ear swelling response by croton oil is a toxic reaction. This response is a concentration-dependent phenomenon, independent of sensitized lymphocytes.
20 μl of 1% croton oil in acetone is applied on the left ear. Ear swelling is measured after 7 hours and 24 hours. Ear swelling is quantified with a springloaded micrometer. […] An additional group is treated with neramexane (as described above) and croton oil.
Sensitization results are analyzed using student test (comparison between treatment and positive control).

Propionibacterium acnes = assay: Log reduction assay; type: cell-based; settings: log reduction experiment
Procedure: In order to determine the efficacy of Neramexane against a specific microorganism population (i.e., Propionibacterium acnes), a log reduction assay is performed. The organisms are prepared by inoculating the fluid thioglycolate (FTM). The microorganism is then incubated at 35.2±2.5° C. for 24 hours. The microbial suspension is adjusted to approximately 107 to 108 colony forming units (CFU) per mL and labeled as the stock suspension. […] Then […] is transferred into 11 mL of DI water to prepare a 3.125% solution. This solution is then inoculated with the microorganism and tested at time intervals of 30 seconds, 1 minute, and 5 minutes. One milliliter from each dilution is spread plated in duplicate onto tryptic soy agar with 5% sheep blood. The plates are incubated anaerobically at 35.2±2.5° C. for a minimum of 48 hours. The same procedure is repeated for the Phosphate Buffer Saline control. After the incubation period, all plates are counted to determine the number of microorganisms remaining at each time point. The concentration of each microorganism for the control and product is calculated for each interval. The log reduction is calculated to determine the change (reduction or increase) of the microorganism population relative to a starting inoculum. The minimum required bactericidal concentration is defined as a 3 log reduction from the initial inoculum.

[6] = system: DNFB-induced contact hypersensitivity (ear swelling response); assay: Contact hypersensitivity (CHS) mouse model; settings: i.p. 5 mg/kg 1 hr before
[7] = system: Streptococcus pyogenes ATCC 12344; assay: MIC by the agar dilution method; type: cell-based; settings: pH 5.5, compared with Staphylococcus aureus
Procedure: (§2) To assess the anti-microbial potency of Neramexane against bacteria strains which are relevant for atopic dermatitis and localized skin infections (“impetigo”), the minimal inhibitory concentration (MIC) against the following bacteria is established:
(§3) The MICs of the samples are determined using the agar dilution method based on DIN 58940. Petri dishes of 5.5 cm diameter are poured with 2.5 ml of freshly prepared Mueller-Hinton agar 2-fold concentrated (Merck company, Cat-No 1.05437), pH 5.5, maintained in liquid form at 50° C., to which the sample dilutions at various concentrations has been added at 50.0 vol.-%.
(§4) Neramexane-Mesylate is tested in the concentration range of 6.25-1*10^−2%. All test solutions are adjusted to pH 5.5.
(§5) For inoculation, 1 μl of the respective germ suspension is placed on the centre of each agar plate. After drying, inoculated plates are incubated at 36.0±2.0° C. The basis for the length of incubation period is the respective growth control cultivated in parallel.
(§6) The test microbe suspension is prepared by inoculating a few individual colonies of the respective bacteria into sterile saline solution until a turbidity corresponding to the McFarland standard 1.0 (approximately 10^8 cfu/ml) is reached. After that, the test microbe suspensions are further diluted 1:10 with saline solution and the microbial counts (see Table 33) are determined by the surface spread method using a spiral plater.
(§7) The agar plates are incubated under the conditions given in Table 34 and subsequently evaluated. The MIC-values as given represent the lowest concentration of the active substance at which there is no macroscopically visible growth. Minimal, barely visible growth or few small individual colonies are evaluated as inhibition.
(§8) The growth of bacteria is indicated for the duplicate plates by a +(i.e., growth) or a −(i.e., no growth), +− indicates weak growth on both plates or growth on one plate and no growth on the other plate. Both bacteria-strains show appropriate growth on the respective control plate not containing any test compound. No influence of the used diluent (Aqua purifacata) is observed. No contamination is observed on the control-plates. In general it has to be considered that values determined by the used method can vary by a factor of 2 (for 1:2 dilutions).

[8] = system: Staphylococcus aureus ATCC 6538; assay: MIC by the agar dilution method; type: cell-based; settings: pH 5.5
Procedure: as §2, §3, §4, §5, §6, §7, §8

[9] = final concentration 0.002 % (Neramexane-HCl)
[10] = final concentration 0.005 % (Neramexane-HCl)
[11] = final concentration 0.01 % (Neramexane-HCl)
[12] = final concentration 0.02 % (Neramexane-HCl)
[13] = final concentration 0.04 % (Neramexane-HCl)
[14] = final concentration 0.08 % (Neramexane-HCl)
[15] = final concentration 0.16 % (Neramexane-HCl)
[16] = final concentration 0.31 % (Neramexane-HCl)
[17] = final concentration 0.63 % (Neramexane-HCl)
[18] = final concentration 1.56 % (Neramexane-HCl)

growth of bacteria on duplicate plates (MIC determination) [1, 9]: + +
growth of bacteria on duplicate plates (MIC determination) [1, 10]: + +
growth of bacteria on duplicate plates (MIC determination) [1, 11]: + +
growth of bacteria on duplicate plates (MIC determination) [1, 12]: + +
growth of bacteria on duplicate plates (MIC determination) [1, 13]: + +
growth of bacteria on duplicate plates (MIC determination) [1, 14]: − −
growth of bacteria on duplicate plates (MIC determination) [1, 15]: − −
growth of bacteria on duplicate plates (MIC determination) [1, 16]: − −
growth of bacteria on duplicate plates (MIC determination) [1, 17]: − −
growth of bacteria on duplicate plates (MIC determination) [1, 18]: − −
MIC [1]: 0.08%
growth of bacteria on duplicate plates (MIC determination) [2, 9]: + +
growth of bacteria on duplicate plates (MIC determination) [2, 10]: + +
growth of bacteria on duplicate plates (MIC determination) [2, 11]: + +
growth of bacteria on duplicate plates (MIC determination) [2, 12]: + +
growth of bacteria on duplicate plates (MIC determination) [2, 13]: + +
growth of bacteria on duplicate plates (MIC determination) [2, 14]: + +
growth of bacteria on duplicate plates (MIC determination) [2, 15]: − −
growth of bacteria on duplicate plates (MIC determination) [2, 16]: − −
growth of bacteria on duplicate plates (MIC determination) [2, 17]: − −
growth of bacteria on duplicate plates (MIC determination) [2, 18]: − −
MIC [2]: 0.16%
growth of bacteria on duplicate plates (MIC determination) [3, 9]: + +
growth of bacteria on duplicate plates (MIC determination) [3, 10]: + +
growth of bacteria on duplicate plates (MIC determination) [3, 11]: + +
growth of bacteria on duplicate plates (MIC determination) [3, 12]: + +
growth of bacteria on duplicate plates (MIC determination) [3, 13]: + +
growth of bacteria on duplicate plates (MIC determination) [3, 14]: + +
growth of bacteria on duplicate plates (MIC determination) [3, 15]: + +
growth of bacteria on duplicate plates (MIC determination) [3, 16]: + +
growth of bacteria on duplicate plates (MIC determination) [3, 17]: − −
growth of bacteria on duplicate plates (MIC determination) [3, 18]: − −
MIC [3]: 0.63%
growth of bacteria on duplicate plates (MIC determination) [4, 9]: + +
growth of bacteria on duplicate plates (MIC determination) [4, 10]: + +
growth of bacteria on duplicate plates (MIC determination) [4, 11]: + +
growth of bacteria on duplicate plates (MIC determination) [4, 12]: + +
growth of bacteria on duplicate plates (MIC determination) [4, 13]: + +
growth of bacteria on duplicate plates (MIC determination) [4, 14]: + −
growth of bacteria on duplicate plates (MIC determination) [4, 15]: − −
growth of bacteria on duplicate plates (MIC determination) [4, 16]: − −
growth of bacteria on duplicate plates (MIC determination) [4, 17]: − −
growth of bacteria on duplicate plates (MIC determination) [4, 18]: − −
MIC [4]: 0.16%
Structure (SMILES): CC1(C)CC(C)(C)CC(C)(N)C1.Cl [Neramexane-HCl]
growth of bacteria (MBC determination) [1, 14]: + +
growth of bacteria (MBC determination) [1, 15]: + +
growth of bacteria (MBC determination) [1, 16]: + +
growth of bacteria (MBC determination) [1, 17]: − −
growth of bacteria (MBC determination) [1, 18]: − −
MBC [1]: 0.63%
growth of bacteria (MBC determination) [2, 15]: + +
growth of bacteria (MBC determination) [2, 16]: + +
growth of bacteria (MBC determination) [2, 17]: + +
growth of bacteria (MBC determination) [2, 18]: − −
MBC [2]: 1.56%
growth of bacteria (MBC determination) [3, 17]: + +
growth of bacteria (MBC determination) [3, 18]: + +
MBC [3]: >1.56%
growth of bacteria (MBC determination) [4, 15]: + +
growth of bacteria (MBC determination) [4, 16]: + +
growth of bacteria (MBC determination) [4, 17]: + +
growth of bacteria (MBC determination) [4, 18]: − −
MBC [4]: 1.56%

Structure (SMILES): CC1(C)CC(C)(C)CC(C)(N)C1 [Neramexane, 1-amino-1,3,3,5,5-pentamethylcyclohexane]
ear swelling response induced by croton oil [5]: reduces the ear swelling response induced by croton oil to some degree
antibacterial activity (Propionibacterium acnes): exhibits antibacterial activity against Propionibacterium acnes
ear swelling response ([6]; 3.2 mg/kg 1 hr and 3 hr after challenge, 24 hours after elicitation): significantly reduces ear swelling response
induction of an immune response (sensitization) ([6]; 3.2 mg/kg 1 hr and 3 hr after sensitization): does not appear to have an impact on the induction of an immune response
antibacterial activity [7]: acts even to greater extend against Streptococcus pyogenes
antibacterial activity [8]: exhibits antibacterial activity with respect to Staphylococcus aureus
